“Also recorded” adds a separate entry of the source. Where two headings read alike, the source gives them in different places.
Tests used:
[1] = tested on: wild-type HIV IIIB; assay: MT-2 cell assay, antiviral activity (MTT); type: cell-based, HIV-1
Procedure: (§1) Antiviral activity and cellular toxicity were determined using the MTT colorimetric method^7,8. MT-2 cell^9,10 at a concentration of 1×10^5 cells per milliliter were infected with wild-type HIV IIIB^11,12,13 at a multiplicity of infection (MOI) of 0.1. Infected and mock-infected cells were incubated in growth medium (RPMI 1640, 10% δFBS, kanamycin) for 5 days with varying concentrations of each compound being tested in triplicate in a 96-well plate. MIT (thiazolyl blue tetrazolium bromide), a cell-permeable tetrazolium dye was then added to each well. Active mitochondria reduce the yellow tetrazolium salt to a blue formazan precipitate. After 5 h, stop solution (86% isopropanol, 4% NP-40, 10% H2O, and 0.3% concentrated HCl) was added to lyse the cells and stop the reaction. The plates were gently shaken gently overnight on a horizontal rotator, and quantitated the following morning. Cell viability was measured spectrophotometrically by quantifying the amount of purple precipitate via determining the absorbance at 595 nm using a Multiskan Plus from Labsystems (Helsinki, Finland) microplate reader. The average of these triplicate samples was then plotted versus inhibitor concentration to generate dose-response curves. The 50% effective concentration (EC50) and 50% cytotoxic concentration (CC50) of the compounds were defined as the concentrations required to inhibit viral replication and to reduce the number of viable cells by 50%, respectively. Positive controls were done during each set of experiments using d4T and the appropriate parent NNRTI (HI-236 or TMC-derivative). Data were quantitated using KaleidaGraph (Synergy Software). ^7. Mosmann, T. J. Immunol Methods 1983, 65, 55-63.^8. Pannecouque, C.; Daelemans, D.; Clercq, E. D. Nat Protoc. 2008, 3, 427-434.^9. Haertle, T.; Carrera, C. J.; Wasson, D. B.; Sowers, L. C.; Richman, D. D.; Carson, D. A. J. Biol Chem. 1988, 263, 5870-5875.^10. Harada, S.; Koyanagi, Y.; Yamamoto, N. Science 1985, 229, 563-566.^11. Popovic, M.; Read-Connole, E.; Gallo, R. C. […] Popovic, M.; Samgadharan, M. G.; Read, E.; Gallo, R. C. […]

[2] = tested on: CHO-gp120 cells; assay: CDC assay (complement-dependent cytotoxicity) on Env-expressing cells; type: cell-based, Chinese hamster
Procedure: CDC Assay (FIG. 4 and FIG. 8)
CHO-WT or CHO-K1 cells taken from a T-75 flask (˜80% confluent), were washed once with DPBS (Gibco, 5 mL), and cells were then detached with 2.5 mM EDTA/0.5 mM EGTA in DPBS. Resulting cell suspension was centrifuged at 900 rpm for five minutes, then pellet was aspirated and re-suspended at a density of 9.00×10^5 cells/mL in Buffer E. Subsequently, cell suspension was added to prepared dilutions of ARM-H (4) (or control molecule) in Buffer E. Resulting cell mixtures were plated in triplicate (50 μL, 22,500 cells/well)□ onto 96 well plates (CoStar, black sides/clear bottom), covered with tin foil and incubated at 4° C. for 1.5 hours. To each well, 50 μL of 20% rabbit complement serum (v/v, Aldrich) and 100 μg/mL rat anti-DNP IgG (Zymed; Carlsbad, Calif.) in Buffer E was added, resulting in a 10% (v/v) complement and 50 μg/mL antibody concentration per well. Negative control wells containing only ARM-H dilutions were prepared in addition to maximum cell death controls (0.15% H2O2). Covered plate was incubated for an additional hour at 4° C. and then for 4 hours at room temperature. All control experiments were conducted following the same protocol. Cell viability was determined using the luciferase-based CellTiter-Glo Luminescent Cell Viability Assay (Promega). Complement mediated cell death and cytotoxicity was calculated as: [1−((sample-max killing)/(untreated-max killing))]×100 and plotted using GraphPad Prism. Raw data was subjected to Dixon Q-test analysis at the 90% confidence interval and statistical outliers removed accordingly^16,17. ^16. Dean, R. B.; Dixon, W. J. Anal. Chem. 1951, 23, 636-638.^17. Efstathiou, C. E. Talanta 2006, 69, 1068-1071.

[3] = molecular target: CD4-gp120 interaction (Human immunodeficiency virus type 1, UniProt Q75760); assay: CD4 inhibition ELISA (competition ELISA, sCD4 binding to immobilized gp120); set-up: species or system HIV-1
Procedure: CD4 Inhibition ELISA (FIG. 2A)
This procedure was adapted from the protocol reported by Lin, et al.^14. 96 well plates (Nunc; Immuno) were coated overnight at 4° C. with soluble recombinant HIV-1 gp120JRFL (Immune Technology; Yonkers, N.Y.) at 1 μg/ml in 0.05M Buffer A (carbonate/bicarbonate, pH=9.6, Aldrich). Plates were washed with PBS (Aldrich, 1×100 μL) and then blocked with 3% nonfat milk in phosphate buffered saline solution (PBS, Aldrich) for 1 hr at room temperature. After washing with Buffer B (50 mM Tris HCl, 100 mM NaCl, 0.05% Tween-20, pH 7.4), varying concentrations of the inhibitor were added simultaneously with recombinant human T-cell CD4 (ImmunoDiagnostics, Inc; Woburn, Mass.) in Buffer C (50 mM Tris HCl, 100 mM NaCl, 1% BSA, pH 7.4) so that the final concentration/well of CD4 is 0.1 μg/mL and plates were incubated for 1 hr at room temperature. Plates were washed with Buffer B (3×100 μL) and then incubated with mouse OKT4 anti-CD4 IgG antibody (Biolegend; San Diego, Calif.) at 0.36 μg/ml in Buffer C at RT for 1 hr. Following washes with Buffer B, plates were incubated with horse radish peroxidase (HRP)-conjugated goat anti-mouse antibody (1:2500; Biolegend; San Diego, Calif.). Bound antibody was detected with 3,3,5,5-tetramethylbenzidine (TMB, Pierce Protein Research Products), the chromogenic substrate for HPR, and absorbance was read at 450 nm. […]

[4] = tested on: MT-2 cells; assay: MT-2 cell assay, cellular toxicity in mock-infected cells (MTT); type: cell-based, human; conditions: control MT-2 cultures lacking HIV virus
Procedure: as §1, with “The 50% effective concentration (EC50) and 50% cytotoxic concentration (CC50) of the compounds were defined as the concentrations required to inhibit viral replication and to reduce the number of viable cells by 50%, respectively. Positive controls were done during each set of experiments using d4T and the appropriate parent NNRTI (HI-236 or TMC-derivative).” left out, “Mosmann, T. J. Immunol Methods 1983, 65, 55-63.^8. Pannecouque, C.; Daelemans, D.; Clercq, E. D. Nat Protoc. 2008, 3, 427-434.^9. Haertle, T.; Carrera, C. J.; Wasson, D. B.; Sowers, L. C.; Richman, D. D.; Carson, D. A. J. Biol Chem. 1988, 263, 5870-5875.^10. Harada, S.; Koyanagi, Y.; Yamamoto, N. Science 1985, 229, 563-566.^11.” left out

[5] = tested on: CHO-gp120 cells; assay: Immunofluorescence microscopy, recruitment of labeled anti-DNP antibodies; type: cell-based, Chinese hamster; conditions: ARM-H plus competing ligand
Procedure: Immunofluorescence (FIG. 3)
Confluent CHO-WT (env expressing) or CHO-K1 (non-env expressing) cells were incubated on cover slips (15CIR-1D, Fisher) over 2 nights at 37° C. in 5% CO2. Cover slips were washed with DPBS (1 mL, Gibco) and then cells fixed with 4% parafomaldehyde in DPBS at 4° C. for 10 minutes. […] Cover slips then washed with Buffer E (2×70 μl) and incubated with AlexaFluor488 rabbit anti-DNP IgG antibodies (Invitrogen) at 15 μg/ml in Buffer E (70 μl) for 1 hr at 4° C. All cover slips were washed prior to mounting onto slides using Gel Mount mounting medium (Biomeda Corp.) with Buffer E and water. Corresponding competition experiments were performed in the presence of recombinant human T-cell CD4 (ImmunoDiagnostics, Inc; Woburn, Mass.), BMS-378806 (1) and DNP-PEG-alkyne (2). Cells were checked using a Zeiss Axiovert 200M fluorescence microscope equipped with a GFP filter.

[6] = tested on: CHO-K1 cells; assay: Flow cytometry detection of DNP labeling; type: cell-based, Chinese hamster; conditions: higher concentrations of labeling reagent, data not shown
Procedure: Flow Cytometry Detection of DNP Labeling (FIG. 9)
CHO-K1 cells taken from a T-75 flask (˜80% confluent), were washed once with DPBS (Gibco, 5 mL), and cells were then detached with 2.5 mM EDTA/0.5 mM EGTA in DPBS. Resulting cell suspension was centrifuged at 900 rpm for five minutes, then pellet was aspirated and re-suspended at a density of 1.40×10^6 cells/mL in F12-K growth medium. Cells were incubated with 2,4-dinitrobenzenesulfonic acid (TCI, 50 mg/mL solution in MeOH) at varying concentrations for 30 min. at room temperature. Cells centrifuged and washed with growth medium (×3) and then aliquoted (0.5 ml) into Eppendorf tubes at a cell density of 1.40×10^6 cells/mL. Cells incubated with AlexaFluor 488 conjugated rabbit anti-DNP IgG (Invitrogen) antibodies (20 μg/mL) for 1 hr at 4° C. Cells were subsequently centrifuged, washed with DPBS (3×0.5 mL), resuspended in 0.5 mL DPBS containing 150 μg of propidium iodide (to monitor cell death) and immediately analyzed for fluorescence using a FACSCalibur flow cytometer (Becton Dickinson) monitoring at least 10,000 events/measurement. Data were analyzed using FlowJo Analysis Software (Tree Star).

## C[C@@H]1CN(C(=O)c2ccccc2)CCN1C(=O)C(=O)c1c[nH]c2nccc(OCCOCCOCCOCCOCCOCCn3cc(COCCOCCOCCOCCNc4ccc([N+](=O)[O-])cc4[N+](=O)[O-])nn3)c12 [ARM-H]
[1]; Human immunodeficiency virus 1, IIIB, MT2, live HIV-1, human MT-2 T-cell line, read-out: IC50, HIV-1 inhibition in MT-2 cell assay
  IC50: 6.4 µM
[2]; CHO cell lines
  non specific cytotoxicity in CHO cell lines: no non specific cytotoxicity
[2]; CHO-gp120 cells, absence of anti-DNP antibody and complement-preserved serum
  cell death without antibody and complement: no cell death was observed
[2]; MT-2 entry inhibition and CDC together
  concentrations at which inhibition of HIV entry and CDC activity were both operative: 6 to 30 µM
[3]
  IC50: ~8.7 µM
[4]
  cytotoxicity in MT-2 cells: no observable cytotoxicity; also recorded: no non specific cytotoxicity

## COc1ccnc2[nH]cc(C(=O)C(=O)N3CCN(C(=O)c4ccccc4)C[C@H]3C)c12 [Formula 1, 4-benzoyl-1-(2-(4-methoxy-1H-pyrrolo(2,3-b)pyridin-3-yl)-1,2-dioxoethyl)-2-methyl-, (2R)-Piperazine, reference compound]
[5]
  fluorescence of ARM-H-recruited anti-DNP antibodies in the presence of competing ligand: considerably diminished
[1]; Human immunodeficiency virus 1, IIIB, MT2, read-out: IC50, HIV-1 inhibition in MT-2 cell assay
  IC50: 0.32 µM
[3]
  IC50: 1.3 µM

## C#CCOCCOCCOCCOCCNc1ccc([N+](=O)[O-])cc1[N+](=O)[O-] [Formula 2, N-(2,4-dinitrophenyl)-3,6,9,12-tetraoxapentadec-14-yn-1-amine]
[5]
  fluorescence of ARM-H-recruited anti-DNP antibodies in the presence of competing ligand: considerably diminished

## Cc1cn([C@H]2C=C[C@@H](CO)O2)c(=O)[nH]c1=O [d4T]
[1]; live HIV-1, human MT-2 T-cell line, read-out: IC50, HIV-1 inhibition in MT-2 cell assay
  IC50: 4.2 µM

## O=[N+]([O-])c1ccc(S(=O)(=O)O)c([N+](=O)[O-])c1 [dinitrobenzenesulfonic acid, 2,4-dinitrobenzenesulfonic acid]
[6]
  cell death on labeling of CHO-K1 cells: Significant cell death
